From ChEMBL document CHEMBL3621038, “Structure-Affinity Relationship Analysis of Selective FKBP51 Ligands” (J Med Chem, 2015)

Assays:
[1] = target: Peptidyl-prolyl cis-trans isomerase FKBP1A (Homo sapiens, UniProt P62942); test: Binding affinity to FKBP12 (unknown origin) by competitive fluorescence polarization assay
[2] = target: T1, Peptidyl-prolyl cis-trans isomerase FKBP5 (Homo sapiens, UniProt Q13451)
T1 sequence (Q13451 whole entry): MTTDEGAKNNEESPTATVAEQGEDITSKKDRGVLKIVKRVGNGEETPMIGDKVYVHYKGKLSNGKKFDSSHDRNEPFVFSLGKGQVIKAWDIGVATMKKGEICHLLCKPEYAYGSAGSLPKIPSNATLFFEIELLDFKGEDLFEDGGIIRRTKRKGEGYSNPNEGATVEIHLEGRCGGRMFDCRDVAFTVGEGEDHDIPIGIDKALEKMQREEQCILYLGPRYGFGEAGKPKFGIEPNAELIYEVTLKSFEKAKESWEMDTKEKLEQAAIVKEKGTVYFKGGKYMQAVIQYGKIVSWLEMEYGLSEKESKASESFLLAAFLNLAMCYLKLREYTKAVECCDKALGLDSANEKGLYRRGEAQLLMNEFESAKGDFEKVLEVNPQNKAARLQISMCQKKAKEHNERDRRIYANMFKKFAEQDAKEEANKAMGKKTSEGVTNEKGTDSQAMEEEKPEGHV

[3] = target: T2, Peptidyl-prolyl cis-trans isomerase FKBP4 (Homo sapiens, UniProt Q02790); test: Binding affinity to FKBP52 (unknown origin) by competitive fluorescence polarization assay
T2 sequence (Q02790 whole entry): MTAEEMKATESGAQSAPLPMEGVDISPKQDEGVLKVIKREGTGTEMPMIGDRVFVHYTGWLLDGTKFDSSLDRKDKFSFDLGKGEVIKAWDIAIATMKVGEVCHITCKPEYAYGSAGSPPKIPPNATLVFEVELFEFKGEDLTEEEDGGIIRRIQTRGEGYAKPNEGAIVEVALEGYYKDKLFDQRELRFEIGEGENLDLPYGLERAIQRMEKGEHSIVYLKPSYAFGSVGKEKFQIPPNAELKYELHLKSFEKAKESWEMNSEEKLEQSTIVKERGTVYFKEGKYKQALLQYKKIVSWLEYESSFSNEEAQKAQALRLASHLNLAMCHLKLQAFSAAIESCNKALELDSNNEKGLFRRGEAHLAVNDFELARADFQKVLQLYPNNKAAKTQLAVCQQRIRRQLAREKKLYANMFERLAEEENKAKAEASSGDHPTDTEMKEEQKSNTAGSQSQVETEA

Peptidyl-prolyl cis-trans isomerase FKBP1A, sequence (P62942 whole entry): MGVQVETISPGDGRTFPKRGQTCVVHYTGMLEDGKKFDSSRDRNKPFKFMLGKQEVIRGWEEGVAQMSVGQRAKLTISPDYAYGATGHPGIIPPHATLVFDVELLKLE

Ki [1] [nM] | Ki [2] [nM] | Ki [3] [nM] | SMILES
90 | 4 | > 50000 | COc1ccc(CC[C@@H](OC(=O)[C@@H]2CCCCN2C(=O)[C@H](c2cc(OC)c(OC)c(OC)c2)C2CCCCC2)c2cccc(OCC(=O)O)c2)cc1OC
600 | 110 | > 50000 | COc1cc(OC)cc([C@@H](C(=O)N2CCCC[C@H]2C(=O)O[C@H](CCc2ccc(OC)c(OC)c2)c2cccc(OCC(=O)O)c2)C2CCCCC2)c1
1200 | 160 | > 100000 | COc1cccc([C@@H](C(=O)N2CCCC[C@H]2C(=O)O[C@H](CCc2ccc(OC)c(OC)c2)c2cccc(OCC(=O)O)c2)C2CCCCC2)c1
300 |  | 9700 | COc1ccc(CC[C@@H](OC(=O)[C@@H]2CCCCN2C(=O)CC2CCCCC2)c2cccc(OCC(=O)O)c2)cc1OC
